Source: patent US8791050B2, “Herbicidal compositions” (priority 1998, dated 2014)

What was measured:
Assay type in all cases: in vivo
[1] = tested on: Sesbania exaltata (SEBEX); assay: Herbicidal effect in rice, field trial, Sesbania exaltata; conditions: Table 1 field trial, post-emergence, scoring 7 days after application, 45 g of AS/ha
Description: (§1) The herbicidal efficacy of the active compounds or active compound mixtures was scored visually using the treated plots in comparison to untreated control plots. The damage and development of all above-ground parts of the plants were recorded. Scoring was carried out using a percentage scale (100% effect=all plants killed; 50% effect=50% of the plants and the green parts of the plants killed; 0% effect=no noticeable effect=like control plot). The scores of in each case 4 plots were averaged.
(§2) If the observed activity values already exceed the formal sum of the values for the trials with the individual applications, they also exceed the expected value according to Colby which is calculated using the following formula and which is likewise considered to be an indication of synergism (cf. S. R. Colby; in Weeds 15 (1967) pp. 20 to 22): E=A+B−(A·B/100)
(§3) Crop plants were grown outdoors on plots under natural outdoor conditions, and seeds or rhizome pieces of typical harmful plants were laid out or the natural weed growth was utilized. […]
(§4) After the application, for example 2, 4, 6 and 8 weeks after the application, the effect of the preparations was scored visually by comparison with untreated controls (cf. scoring in Example 1). […]

[2] = tested on: Amaranthus retroflexus (AMARE); assay: Herbicidal effect in rice, field trial, Amaranthus retroflexus; conditions: Table 1 field trial, post-emergence, scoring 7 days after application, 45 g of AS/ha
Description: as §1, §2
Crop plants were grown outdoors on plots under natural outdoor conditions, and seeds or rhizome pieces of typical harmful plants were laid out or the natural weed growth was utilized. Treatment with the compositions according to the invention was carried out after the harmful plants had emerged and the crop plants were, generally, at the 2- to 4-leaf stage; in some cases (as stated), application of individual active compounds or active compound combinations was carried out pre-emergence (cf. Example 1) or as a sequential treatment partly pre-emergence and/or post-emergence.
After the application, for example 2, 4, 6 and 8 weeks after the application, the effect of the preparations was scored visually by comparison with untreated controls (cf. scoring in Example 1). In the field trial as well, the compositions according to the invention have synergistic herbicidal activity against a broad spectrum of economically important weed grasses and broad-leaved weeds. […] Moreover, the effects in essential phases of the scoring period were above the expected values according to Colby (cf. scoring in Example 1), also indicating synergism. […]

[3] = tested on: Cyperus difformis (CYPDI); assay: Herbicidal effect in rice, field trial, Cyperus difformis; conditions: Table 11 field trial, post-emergence 2-4-leaf stage, scoring 28 days after application, 45 g of AS/ha
Description: as §1, §2, §3, §4

Ipomoea spp (IPOSS) = assay: Herbicidal effect in rice, field trial, Ipomoea spp; conditions: Table 11 field trial, post-emergence 2-4-leaf stage, scoring 28 days after application, 45 g of AS/ha
Description: as §1, §2, §3, §4

SMILES: COc1cc(OC)nc(Oc2cccc(Oc3nc(OC)cc(OC)n3)c2C(=O)[O-])n1.[Na+] [(B4.6), bispyribac-Na]
- Herbicidal effect (%) against SEBEX [1]: 93%
- Herbicidal effect (%) against AMARE [2]: 93%
- Herbicidal effect (in %) against CYPDI [3]: 75%
- Herbicidal effect (in %) against IPOSS (Ipomoea spp (IPOSS)): 91%
